# Measured values from patent publication US8426447B2, “Spiro-tricyclic ring compounds as beta-secretase modulators and methods of use” (Amgen Inc., priority 2008, dated 2013).
# What was measured:
# BACE1 [1] = biological target: T1, BACE1 (Homo sapiens, UniProt P56817); experiment: In Vitro Enzymatic BACE FRET (Fluorescence Resonance Energy Transfer) Assay; assay type: biochemical
# Method: In Vitro Enzymatic BACE FRET (Fluorescence Resonance Energy Transfer) Assay (Enzyme Assay Data in the Example Tables I, II, III & IV) The assay buffer used in this screen is 0.05 M acetate, pH 4.2, 10% DMSO final, 100 uM genapol (which is a nonionic detergent, below its Critical Micelle Concentration). […] This assay is effectively started by the addition of FRET substrate (50 nM) and the combination is incubated for one hour. The FRET assay is terminated with by addition of Tris buffer, which raises the pH to neutrality, and the fluorescence is determined. The FRET substrate is a peptide with commercially available fluorophore and quencher, on opposite sides of the BACE cleavage site. […]
# BACE1 [2] = biological target: T1, BACE1; experiment: In Vitro BACE Cell-based Assay (HEK cell assay): Aβ40 in conditioned medium of cells stably expressing Amyloid Precursor Protein, sandwich ELISA
# Method: In Vitro BACE Cell-based Assay
# The cell-based assay measures inhibition or reduction of Aβ40 in conditioned medium of test compound treated cells expressing amyloid precursor protein.
# Cells stably expressing Amyloid Precursor Protein (APP) were plated at a density of 40K cells/well in 96 well plates (Costar). The cells were cultivated for 24 hours at 37° C. and 5% CO2 in DMEM supplemented with 10% FBS. The test compounds were then added to cells in 10-point dose response concentrations with the starting concentration being either 100 μM or 10 μM. The compounds were diluted from stock solutions in DMSO and the final DMSO concentration of the test compounds on cells was 0.1%. After 24 h of incubation with the test compounds the supernatant conditioned media was collected and the Aβ 40 levels were determined using a sandwich ELISA. The IC50 of the compound was calculated from the percent of control or percent inhibition of Aβ 40 as a function of the concentration of the test compound.
# The sandwich ELISA to detect Aβ 40 was performed in 96 well microtiter plates, which were pre-treated with goat anti-rabbit IgG (Pierce). The capture and detecting antibody pair that were used to detect Aβ 40 from cell supernatants were affinity purified pAb40 (Biosource) and biotinylated 6E10 (Signet Labs Inc.), respectively. The optimal concentration for the pAb40 antibody was 3 μg/ml in Superblock/TBS (Pierce) that was supplemented with 0.05% Tween 20 (Sigma).
# Cellular supernatants were incubated with the capture antibody for 3 h at 4° C., followed by 3 wash steps in TBS-tween (0.05%). The detecting antibody incubation was for 2 h at 4° C., again followed by the wash steps as described previously. The final readout of the ELISA is Time-Resolved Fluorescence (counts per minute) using Delfia reagents Streptavidin-Europium and Enhancement solutions (Perkin Elmer) and the Victor 2 multilabel counter (Perkin Elmer).
# [3] = Table III, IC50's in uM ranges, read-out: BACE1 FRET assay
# [4] = Table III, IC50's in uM ranges, read-out: HEK cell assay
# [5] = in vitro BACE FRET enzyme assay, IC50 class symbols, read-out: BACE1 FRET assay
# [6] = HEK cell-based assay, Aβ40 in conditioned medium, IC50 class symbols, read-out: HEK cell assay
# [7] = HEK cells, read-out: HEK cell assay
# [8] = Table IV, class symbols, read-out: BACE1 FRET assay
# [9] = Table IV, class symbols, read-out: HEK cell assay
# [10] = Table II, read-out: BACE1 FRET assay
# [11] = Table II, Aβ40, 24 h incubation, read-out: HEK cell assay
# T1 sequence (P56817 46-501, species assumed): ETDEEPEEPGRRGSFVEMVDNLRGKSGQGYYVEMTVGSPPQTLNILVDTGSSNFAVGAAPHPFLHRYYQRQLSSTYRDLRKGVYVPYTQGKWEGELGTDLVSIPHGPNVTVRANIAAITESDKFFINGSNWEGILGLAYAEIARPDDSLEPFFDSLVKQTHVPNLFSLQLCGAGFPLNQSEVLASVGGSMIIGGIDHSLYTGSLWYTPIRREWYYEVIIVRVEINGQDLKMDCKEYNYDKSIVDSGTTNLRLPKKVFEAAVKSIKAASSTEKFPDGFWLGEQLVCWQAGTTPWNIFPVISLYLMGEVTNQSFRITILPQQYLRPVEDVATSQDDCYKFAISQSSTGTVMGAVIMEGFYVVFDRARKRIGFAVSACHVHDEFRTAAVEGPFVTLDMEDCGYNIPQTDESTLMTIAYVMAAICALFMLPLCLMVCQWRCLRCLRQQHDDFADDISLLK
smiles,measurement,setting,value
C[C@H]1OC(N)=N[C@]12c1cc(OCC(C)(C)C)ccc1Oc1ccc(-c3cncnc3)cc12 [126c],IC50,BACE1 [1]; [3],0.1 to 1 µM
same,IC50,BACE1 [2]; [4],1 to 5 µM
CC(C)(C#N)COc1ccc2c(c1)[C@]1(COC(N)=N1)c1cc(-c3cncnc3)cnc1O2 [compound 167],IC50,BACE1 [1]; [3],< 0.1 µM
same,IC50,BACE1 [2]; [4],0.1 to 1 µM
NC1=N[C@]2(CO1)c1cc(Br)ccc1Oc1ccc(-c3cncnc3)cc12 [compound 686],IC50,BACE1 [1]; read-out: BACE1 FRET assay,0.1 to 1 µM
same,IC50,BACE1 [2]; read-out: HEK cell assay,0.1 to 1 µM
CC(C)(C)OC(=O)/C=C/c1ccc2c(c1)[C@]1(COC(N)=N1)c1cc(-c3cccnc3)ccc1O2 [compound 995],IC50,BACE1 [1]; read-out: BACE1 FRET assay,0.1 to 1 µM
same,IC50,BACE1 [2]; read-out: HEK cell assay,1 to 5 µM
CC(C)(C#N)COc1cnc2c(c1)[C@]1(COC(N)=N1)c1cc(-c3ccccc3F)ccc1O2 [compound 408],IC50,BACE1 [1]; [5],< 0.1 µM
same,IC50,BACE1 [2]; [6],< 0.1 µM
N#Cc1ccc(-c2cnc3c(c2)[C@]2(COC(N)=N2)c2cc(-c4cncnc4)ccc2O3)cc1 [compound 473],IC50,BACE1 [1]; read-out: BACE1 FRET assay,< 0.1 µM
same,IC50,BACE1 [2]; [7],< 0.1 µM
CN(C)CC#Cc1ccc2c(c1)[C@@]1(COC(N)=N1)c1cc(-c3cncnc3)ccc1O2 [117b],IC50,BACE1 [1]; [3],1 to 5 µM
same,IC50,BACE1 [2]; [4],0.1 to 1 µM
CC(C)(C)COc1ccc2c(c1)[C@]1(COC(N)=N1)c1cc(C(=O)NC3CCC3)ccc1O2 [compound 702],IC50,BACE1 [1]; read-out: BACE1 FRET assay,< 0.1 µM
same,IC50,BACE1 [2]; read-out: HEK cell assay,0.1 to 1 µM
CC(C)(C)COc1ccc2c(c1)[C@]1(COC(N)=N1)c1cc(-c3ccnnc3)ccc1O2 [compound 145],IC50,BACE1 [1]; [3],< 0.1 µM
same,IC50,BACE1 [2]; [4],0.1 to 1 µM
CC1(COc2ccc3c(c2)[C@]2(COC(N)=N2)c2cc(-c4cccnc4)cnc2O3)COC1 [compound 165],IC50,BACE1 [1]; [3],< 0.1 µM
same,IC50,BACE1 [2]; [4],< 0.1 µM
NC1=N[C@@]2(CO1)c1cc(-c3cccnc3)ccc1Oc1cnc(-c3cccnc3)cc12 [compound 902],IC50,BACE1 [1]; [8],< 0.1 µM
same,IC50,BACE1 [2]; [9],< 0.1 µM
CC(C)(O)C#Cc1ccc2c(c1)[C@@]1(COC(N)=N1)c1cc(Br)cnc1O2 [compound 173],IC50,BACE1 [1]; [3],1 to 5 µM
same,IC50,BACE1 [2]; [4],> 5 µM
COc1cc(F)c2c(c1)[C@]1(COC(N)=N1)c1cc(-c3cncnc3)cnc1O2 [compound 584],IC50,BACE1 [1]; [8],1 to 5 µM
same,IC50,BACE1 [2]; [9],> 5 µM
NC1=N[C@@]2(CO1)c1cc(-c3cccnc3)ccc1Oc1cnc(C(=O)CCCCO)cc12 [compound 612],IC50,BACE1 [1]; [8],< 0.1 µM
same,IC50,BACE1 [2]; [9],0.1 to 1 µM
NC1=N[C@@]2(CO1)c1cc(-c3cccnc3F)ccc1Oc1ccc(-c3ccncc3)nc12 [compound 402],IC50,BACE1 [1]; [5],< 0.1 µM
same,IC50,BACE1 [2]; [6],< 0.1 µM
CC(C)(C)C#Cc1ccc2c(c1)[C@@]1(COC(N)=N1)c1cc(-c3cccnc3)cnc1O2 [compound 895],IC50,BACE1 [1]; [8],< 0.1 µM
same,IC50,BACE1 [2]; [9],< 0.1 µM
"Cc1ccc2c(c1)Oc1ccc(-c3cccc(Cl)c3)cc1C21COC(N)=N1 (stereo not drawn) [Example 25, 2′-(3-chlorophenyl)-6′-methylspiro[1,3-oxazole-4,9′-xanthen]-2-amine]",IC50,"BACE1 [1]; Table 1, read-out: BACE1 FRET assay",> 5 µM
same,IC50,"BACE1 [2]; Table 1, Aβ40, 24 h incubation, read-out: HEK cell assay",1 to 5 µM
COc1cc(-c2cc3c(cn2)Oc2ccc(-c4cccnc4F)cc2[C@@]32COC(N)=N2)ccn1 [compound 430],IC50,BACE1 [1]; read-out: BACE1 FRET assay,< 0.1 µM
same,IC50,BACE1 [2]; [7],0.1 to 1 µM
COc1ccc2c(c1)[C@]1(COC(N)=N1)c1cc(-c3cccc4ncccc34)ccc1O2 [compound 591],IC50,BACE1 [1]; [8],1 to 5 µM
same,IC50,BACE1 [2]; [9],1 to 5 µM
COC(C)(C)COc1cc2c(cc1F)Oc1ccc(-c3cccnc3)cc1[C@@]21COC(N)=N1 [compound 544],IC50,BACE1 [1]; [8],< 0.1 µM
same,IC50,BACE1 [2]; [9],< 0.1 µM
CC(C)(C)C#Cc1ccc2c(c1)[C@]1(COC(N)=N1)c1cc(C#CC(C)(C)C)ncc1O2 [compound 847],IC50,BACE1 [1]; [8],0.1 to 1 µM
same,IC50,BACE1 [2]; [9],1 to 5 µM
"COc1ccc2c(c1)[C@@]1(N=C(N)O[C@@H]1C)c1cc(-c3cncnc3)ccc1O2 (single isomer, unassigned) [Example 125d]",IC50,BACE1 [1]; [3],0.1 to 1 µM
same,IC50,BACE1 [2]; [4],0.1 to 1 µM
CC1(C)CN(c2cnc3c(c2)[C@]2(COC(N)=N2)c2cc(-c4cccnc4F)ccc2O3)CCO1 [compound 463],IC50,BACE1 [1]; read-out: BACE1 FRET assay,< 0.1 µM
same,IC50,BACE1 [2]; [7],< 0.1 µM
NC1=N[C@@]2(CO1)c1cc(-c3cccnc3)ccc1Oc1cnc(N3CCC3)cc12 [compound 447],IC50,BACE1 [1]; read-out: BACE1 FRET assay,< 0.1 µM
same,IC50,BACE1 [2]; [7],0.1 to 1 µM
NC1=N[C@]2(CO1)c1cc(/C=C/C(=O)O)ccc1Oc1ccc(-c3cncnc3)cc12 [compound 948],IC50,BACE1 [1]; read-out: BACE1 FRET assay,0.1 to 1 µM
same,IC50,BACE1 [2]; read-out: HEK cell assay,> 5 µM
NC1=N[C@]2(CO1)c1ccccc1Oc1ccc(-c3cc4ccccc4[nH]3)cc12 [compound 567],IC50,BACE1 [1]; [8],1 to 5 µM
same,IC50,BACE1 [2]; [9],> 5 µM
CC1(C)CC(c2cc3c(cn2)Oc2ccc(-c4cccnc4F)cc2[C@@]32COC(N)=N2)=CCO1 [compound 434],IC50,BACE1 [1]; BACE1 FRET assay (uM),< 0.1 µM
same,IC50,"BACE1 [2]; HEK cell assay (uM), HEK cells",< 0.1 µM
"COc1ncccc1-c1ccc2c(c1)[C@@]1(COC(N)=N1)c1cc(OCC(C)(C)C)ccc1O2 [Example 77, (4S)-2′-(2,2-dimethylpropoxy)-7′-(2-methoxy-3-pyridinyl)spiro[1,3-oxazole-4,9′-xanthen]-2-amine]",IC50,BACE1 [1]; [10],< 0.1 µM
same,IC50,BACE1 [2]; [11],1 to 5 µM
CC(C)(C)COc1ccc2c(c1)[C@]1(COC(N)=N1)c1cc(C(=O)NC3CCCC3)ccc1O2 [compound 874],IC50,BACE1 [1]; [8],0.1 to 1 µM
same,IC50,BACE1 [2]; [9],1 to 5 µM
NC1=N[C@]2(CO1)c1cc(-c3ccc(O)cc3)ccc1Oc1ccc(-c3cncnc3)cc12 [compound 890],IC50,BACE1 [1]; [8],< 0.1 µM
same,IC50,BACE1 [2]; [9],0.1 to 1 µM
CC(C)(C)COc1ccc2c(c1)[C@@]1(COC(N)=N1)c1cc(C(=O)N3CCCC3)ccc1O2 [218a],IC50,BACE1 [1]; [3],0.1 to 1 µM
same,IC50,BACE1 [2]; [4],1 to 5 µM
CC(C)(C)COc1ccc2c(c1)[C@@]1(COC(N)=N1)c1cc(-c3ccc(C#N)nc3)ccc1O2 [compound 782],IC50,BACE1 [1]; read-out: BACE1 FRET assay,< 0.1 µM
same,IC50,BACE1 [2]; read-out: HEK cell assay,0.1 to 1 µM
"CC(C)(C)COc1ccc2c(c1)[C@@]1(COC(N)=N1)c1cc(-c3cccnc3)cnc1O2 [Example 93, (5S)-7-(2,2-dimethylpropoxy)-3-(3-pyridinyl)spiro[chromeno[2,3-b]pyridine-5,4′-[1,3]oxazol]-2′-amine]",IC50,BACE1 [1]; [10],0.1 to 1 µM
same,IC50,BACE1 [2]; [11],0.1 to 1 µM
N#Cc1ccccc1-c1ccc2c(c1)[C@]1(COC(N)=N1)c1cc(-c3cccnc3)ccc1O2 [compound 962],IC50,BACE1 [1]; read-out: BACE1 FRET assay,< 0.1 µM
same,IC50,BACE1 [2]; read-out: HEK cell assay,0.1 to 1 µM
COC(C)(C)C#Cc1cnc2c(c1)[C@@]1(COC(N)=N1)c1cc(-c3ccnnc3)ccc1O2 [compound 681],IC50,BACE1 [1]; read-out: BACE1 FRET assay,1 to 5 µM
same,IC50,BACE1 [2]; read-out: HEK cell assay,> 5 µM
NC1=N[C@@]2(CO1)c1cc(-c3cc(Cl)ccc3F)ccc1Oc1ncc(C3CCOCC3)cc12 [compound 404],IC50,BACE1 [1]; [5],< 0.1 µM
same,IC50,BACE1 [2]; [6],< 0.1 µM
CC1(C)C=C(c2cnc3c(c2)[C@]2(COC(N)=N2)c2cc(-c4cncnc4)ccc2O3)CCO1 [compound 478],IC50,BACE1 [1]; read-out: BACE1 FRET assay,< 0.1 µM
same,IC50,BACE1 [2]; [7],< 0.1 µM
"Cc1cncc(-c2ccc3c(c2)[C@@]2(COC(N)=N2)c2cc(OCC(C)(C)C)ccc2O3)c1 [Example 81, (4S)-2′-(2,2-dimethylpropoxy)-7′-(5-methyl-3-pyridinyl)spiro[1,3-oxazole-4,9′-xanthen]-2-amine]",IC50,BACE1 [1]; [10],< 0.1 µM
same,IC50,BACE1 [2]; [11],< 0.1 µM
CC(C)(C)/C=C/c1cnc2c(c1)[C@]1(COC(N)=N1)c1cc(-c3cncnc3)ccc1O2 [compound 379],IC50,BACE1 [1]; [5],< 0.1 µM
same,IC50,BACE1 [2]; [6],< 0.1 µM
